SMILES strings stand for the structures. In brackets after ≈: the same amount, converted by molar mass. *1 amine or outer side, *2 acyl side, *3 side chain or, on linkers, in order; H or OH if unused. Where a SMILES comes first, the peptide text is derived from it. [ ]: non-standard residue; d: D form. X1 = O=C1CC2C(=O)N(CCN[*:1])C(=O)C2C(c2ccc(C(=O)[*:2])cc2)C1; X2 = O=C1CC2C(=O)N(CCN[*:1])C(=O)C2C(C(=O)[*:2])C1; Cha = N[C@@H](CC1CCCCC1)C(=O)O

In ChEMBL document CHEMBL6134829, “Targeting cysteine protease B to discover antileishmanial drugs: Directions and advances” (Eur J Med Chem, 2025) one finds Ki, IC50 and Activity data, which are given here for 37 compounds.

Assay [1] is described as follows: Binding affinity to Leishmania mexicana CPB2.8 assessed as inhibition constant.
Assay [2] can be described thus: Inhibition of Leishmania mexicana CPB2.8.
The next assay concerns Leishmania donovani. Kind of assay: Antileishmanial activity against Leishmania donovani MHOM/IN/1983/AG83 axenic amastigotes assessed as inhibition of growth at 10 uM relative to control. It is filed as functional. Also on record: scale not given: the % may be the effect or the level left.
Assay [3] can be described thus: Inhibition of Leishmania donovani cysteine protease.
Another assay deals with Leishmania major. Put plainly: Antileishmanial activity against Leishmania major promastigotes MHOM/IL/81/FE/BN. The class given is functional, organism-based.
In a further assay the test system is Leishmania amazonensis. Kind of assay: Antileishmanial activity against Leishmania amazonensis promastigotes assessed as inhibition of parasite growth. It is filed as functional, organism-based.
A further assay deals with Leishmania infantum. Kind of assay: Antileishmanial activity against Leishmania infantum promastigote assessed as reduction in parasite growth after 72 hrs by MTT assay relative to control. Details: scale not given: the % may be the effect or the level left. The class given is functional. For orientation: Formazan colour is commonly taken as a measure of viable cells.

As to `O=c1c(O)c(-c2ccc3c(c2)OCO3)oc2ccccc12`, the inhibition constant (Ki) (usually a measure of affinity in units of concentration, obtained from inhibition or displacement) in assay [1] stood at 7.06 µM. Also, the concentration for half-maximal inhibition (IC50) (in general, the concentration that inhibits the measured activity by half) in assay [2] amounted to 5.23 µM. The like results for `CN(C)c1ccc(/C=C/C(=O)c2cc(Cl)ccc2O)cc1` were, in that order, 5.47 µM and 3.97 µM. For the compound `O=C1NC(=O)/C(=C/c2ccc([N+](=O)[O-])cc2)S1`, half-maximal inhibition in assay [2] (IC50) required 0.98 µM. The Activity with Leishmania donovani is 93.98%. Taken in the same sequence, the figures for `CCOc1cc(/C=C2\SC(=O)NC2=O)ccc1O` were 1.42 µM and 100%.

Consider `Oc1cccc(/C=N\c2cccc3c(/N=C/c4cccc(O)c4O)cccc23)c1O`, for which the 50% inhibitory concentration (IC50) in assay [3] stood at 113 µM. As for `O=C(O)c1ccccc1N/N=C/c1ccc(/C=N/Nc2ccccc2C(=O)O)cc1`, inhibition in assay [3] was half-maximal at 72 µM (IC50). For `COC(=O)c1ccc(NC(=O)CSc2nc3ccc(Cl)cc3n2Cc2cc(C)cc(C)c2)c(Cl)c1`, the inhibitory constant (Ki) in assay [1] is 0.69 µM. Further, the half-inhibitory concentration (IC50) in assay [2] was 2.06 µM. The like results for `COC(=O)c1ccc(NC(=O)CSc2nc3ccc(Cl)cc3n2S(=O)(=O)c2cc(C)cc(C)c2)c(Cl)c1` were, in that order, 0.15 µM and 0.45 µM. In assay [2], `O=C(N[C@H](/C=C/S(=O)(=O)c1ccccc1)CCc1ccccc1)[C@H](Cc1ccccc1)NC(=O)N1CCOCC1` had an IC50 of 0.027 µM. On to `CC(C)C[C@@H](NC(=O)OC(C)(C)C)C(=O)N1CCC[C@@H]1C(=O)N1[C@H](C(=O)OCc2ccccc2)[C@H]1C(=O)OCc1ccccc1`, for which the IC50 with Leishmania major amounted to 35.4 µM. The same measure, in the same setting: next, `CC(C)C[C@H](NC(=O)OC(C)(C)C)C(=O)N1CCC[C@@H]1C(=O)N1[C@H](C(=O)OCc2ccccc2)[C@H]1C(=O)OCc1ccccc1`: 39.6 µM. Consider `COc1ccc(-c2oc3ccccc3c(=O)c2O)cc1`, for which, in assay [1], the Ki was found to be 7.71 µM. The same compound showed an IC50 in assay [2] of 4.72 µM. On to `COC(=O)c1ccc(NC(=O)CSc2nc3ccccc3n2S(=O)(=O)c2cc(C)cc(C)c2)cc1`, for which, in assay [1], the inhibition constant Ki turned out to be 0.18 µM. This compound yielded an IC50 in assay [2] of 0.54 µM.

For the compound `O=C(CN1C(=O)/C(=N\NC(=O)c2ccncc2)c2ccccc21)Nc1ccccc1`, in assay [3], the IC50 turned out to be 62.6 µM. Consider `CC(C)C[C@H](NC(=O)OC(C)(C)C)C(=O)N1CCC[C@@H]1C(=O)N1[C@@H](C(=O)OCc2ccccc2)[C@@H]1C(=O)OCc1ccccc1`, for which, in assay [2], the concentration for half-maximal inhibition (IC50) was 3.8 µM. As for `O=C1c2c(O)cc(O)cc2O[C@@H](c2ccc(O)cc2)[C@@H]1c1c(O)cc(O)c2c(=O)cc(-c3ccc(O)c(O)c3)oc12`, the IC50 in assay [2] worked out at 5.2 µM; in the assay on Leishmania amazonensis, 95 µg/mL (≈ 171 µM). Consider `CC(C)(C)OC(=O)N[C@@H](Cc1cccc(Cl)c1)C(=O)NCC#N`, for which the Activity with Leishmania infantum turned out to be 35%. As to `O=C1CC(c2ccc(O)c(-c3c(O)cc4c(c3O)C(=O)CC(c3ccc(O)cc3)O4)c2)Oc2cc(O)cc(O)c21` (stereo unspecified), half-maximal inhibition in assay [2] (IC50) was put at 2.2 µM. `Cc1cc(C)cc(S(=O)(=O)n2c(SCC(=O)Nc3ccccc3)nc3ccccc32)c1`: the Ki in assay [1] was 0.23 µM. For the same compound, the half-maximal inhibitory concentration (IC50) in assay [2] amounted to 0.68 µM. Compound `Oc1cc(O)cc(/C=N/c2ccc(/N=C/c3ccc(O)cc3O)c(Cl)c2)c1` had a half-maximal inhibitory concentration (IC50) in assay [3] of 65.3 µM. With `C[C@@H]1CCC2(C(=O)O)CC[C@]3(C)C(=CCC4[C@@]5(C)CCC(=O)C(C)(C)C5CC[C@]43C)C2[C@H]1C` (stereo partly specified), in assay [1], the Ki is 1.26 µM. Also, half-maximal inhibition in assay [2] (IC50) required 3.78 µM. `O=C(N[C@@H](Cc1ccccc1)C(=O)c1noc(-c2ccccc2)n1)[C@H](Cc1ccccc1)NC(=O)N1CCOCC1` had an IC50 in assay [2] of 0.05 µM. The same measure, in the same setting: then `CN1CCN(C(=O)N[C@@H](Cc2ccccc2)C(=O)N[C@@H](CCc2ccccc2)C(=O)c2cc(-c3ccccc3)on2)CC1`, with 0.23 µM; and `NC(=O)N/N=c1\oc2ccccc2cc1-c1nc2ccccc2[nH]1`, with 0.01 µM. Take `NC(=S)N/N=C/c1c(-c2ccccc2)[nH]c2ccccc12`: it took 0.06 µM to reach half-maximal inhibition in assay [2] (IC50). Still for that read-out and setting: then `O=C(N[C@@H](Cc1ccccc1)C(=O)c1cc(-c2ccccc2)on1)[C@H](Cc1ccccc1)NC(=O)N1CCOCC1`, with 0.1 µM. On the same count and under the same terms, next, `COc1ccc(-c2ccc(/C=N/NC(N)=S)o2)cc1`: 0.07 µM. Still for that read-out and setting: then `O=C1CC(c2ccc(O)cc2)Oc2cc(O)c(-c3c(O)cc(O)c4c(=O)cc(-c5ccc(O)cc5)oc34)c(O)c21` (stereo unspecified), with 0.43 µM. Regarding `CC(C)=CCOc1ccc(C(=O)c2ccc(O)cc2)c(O)c1`, the Ki in assay [1] was determined as 4.3 µM. The compound further yielded an IC50 in assay [2] of 2.9 µM.

For the compound `Cc1ccc(C(=O)[C@@]23C(=O)OC(=O)[C@]2(C)N(C)[C@]2(c4ccccc4)Sc4ccccc4[C@H]32)cc1`, in assay [1], the Ki was 1.36 µM. For the same compound, the IC50 in assay [2] is 3.7 µM. With `COc1ncccc1Nc1nc(C#N)nc(NC2CCCCC2)n1`, in assay [2], the IC50 was found to be 1.1 µM. On to `COc1ccc2nc3cc(Cl)ccc3c(-n3c(=S)[nH][nH]c3=S)c2c1`, for which the IC50 in assay [2] turned out to be 1.14 µM; in the assay on Leishmania amazonensis, 6.57 µg/mL (≈ 17.5 µM). `O=C(N[C@@H](CCc1ccccc1)C(=O)c1cc(-c2ccccc2)on1)[C@H](Cc1ccccc1)NC(=O)N1CCOCC1` displayed an IC50 in assay [2] of 0.19 µM. As to `CC(C)[C@H](NC(=O)c1ccc(C2CC(=O)CC3C(=O)N(CCNC(=O)[C@H](CC(=O)O)NC(=O)[C@@H](N)Cc4c[nH]c5ccccc45)C(=O)C32)cc1)C(=O)N[C@@H](CO)C(=O)N[C@@H](CCCCN)C(N)=O` (stereo partly specified) (H-WD[X1]VSK-NH2), the IC50 in assay [2] came out at 1.7 µM. Same read-out and setting: then `CC(C)C[C@H](NC(=O)C1CC(=O)CC2C(=O)N(CCNC(=O)[C@H](Cc3ccccc3)NC(=O)[C@@H](N)Cc3c[nH]c4ccccc34)C(=O)C12)C(=O)N[C@@H](Cc1ccc(O)cc1)C(=O)N[C@@H](Cc1ccc(O)cc1)C(N)=O` (stereo partly specified) (H-WF[X2]LYY-NH2), with 0.5 µM; and `CC(C)[C@H](NC(=O)c1ccc(C2CC(=O)CC3C(=O)N(CCNC(=O)[C@H](Cc4c[nH]c5ccccc45)NC(=O)[C@@H](N)CC4CCCCC4)C(=O)C32)cc1)C(=O)N[C@H](C(=O)N[C@@H](Cc1ccccc1)C(N)=O)C(C)C` (stereo partly specified) (H-[Cha]W[X1]VVF-NH2), with 0.45 µM. Regarding `CC(C)(F)C[C@H](N[C@@H](c1ccc(-c2ccc(S(C)(=O)=O)cc2)cc1)C(F)(F)F)C(=O)NC1(C#N)CC1` [ODANACATIB], the Activity in the assay with Leishmania infantum is 90%.
